Assay results as given in article PMC4354951 (European journal of medicinal chemistry, 2008).
“Also recorded” adds a separate entry of the source.

Columns and labels:
human NTPDase8 = target: T1, human NTPDase8 (Homo sapiens, UniProt Q5MY95); experiment: Hydrolysis by NTPDase8; type: biochemical
T1 sequence (Q5MY95 1-495): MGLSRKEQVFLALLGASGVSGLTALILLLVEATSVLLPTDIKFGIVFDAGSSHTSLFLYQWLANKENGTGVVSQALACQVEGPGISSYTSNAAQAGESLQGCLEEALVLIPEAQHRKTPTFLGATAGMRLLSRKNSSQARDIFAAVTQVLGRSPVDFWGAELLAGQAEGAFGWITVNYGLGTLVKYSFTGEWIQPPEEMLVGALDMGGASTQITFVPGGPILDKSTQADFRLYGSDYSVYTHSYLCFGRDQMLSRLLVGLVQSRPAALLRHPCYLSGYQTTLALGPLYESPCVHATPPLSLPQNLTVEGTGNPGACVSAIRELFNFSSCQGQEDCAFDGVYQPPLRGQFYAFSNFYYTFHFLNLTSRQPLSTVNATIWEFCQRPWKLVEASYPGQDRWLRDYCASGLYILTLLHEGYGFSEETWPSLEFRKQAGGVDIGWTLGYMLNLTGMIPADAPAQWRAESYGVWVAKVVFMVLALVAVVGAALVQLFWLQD

human NTPDase3 = target: T2, human NTPDase3 (Homo sapiens, UniProt O75355); experiment: Hydrolysis by NTPDase3; type: biochemical
T2 sequence (O75355 1-529): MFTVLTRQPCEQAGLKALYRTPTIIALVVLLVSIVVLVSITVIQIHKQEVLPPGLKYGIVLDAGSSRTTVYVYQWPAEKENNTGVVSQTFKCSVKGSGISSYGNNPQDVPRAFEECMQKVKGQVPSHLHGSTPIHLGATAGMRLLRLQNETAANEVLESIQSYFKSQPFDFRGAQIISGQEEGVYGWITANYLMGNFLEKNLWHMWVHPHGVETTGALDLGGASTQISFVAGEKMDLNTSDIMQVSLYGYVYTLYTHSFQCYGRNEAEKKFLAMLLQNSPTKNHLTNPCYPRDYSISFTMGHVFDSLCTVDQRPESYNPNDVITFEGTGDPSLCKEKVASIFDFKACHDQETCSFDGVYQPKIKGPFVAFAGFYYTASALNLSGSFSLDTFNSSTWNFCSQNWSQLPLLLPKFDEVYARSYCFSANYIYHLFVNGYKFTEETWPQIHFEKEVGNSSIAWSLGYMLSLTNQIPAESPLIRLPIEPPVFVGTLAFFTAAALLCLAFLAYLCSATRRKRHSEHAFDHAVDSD

human NTPDase1 = target: T3, human NTPDase1 (Homo sapiens, UniProt P49961); experiment: Hydrolysis by NTPDase1; type: biochemical
T3 sequence (P49961 1-510): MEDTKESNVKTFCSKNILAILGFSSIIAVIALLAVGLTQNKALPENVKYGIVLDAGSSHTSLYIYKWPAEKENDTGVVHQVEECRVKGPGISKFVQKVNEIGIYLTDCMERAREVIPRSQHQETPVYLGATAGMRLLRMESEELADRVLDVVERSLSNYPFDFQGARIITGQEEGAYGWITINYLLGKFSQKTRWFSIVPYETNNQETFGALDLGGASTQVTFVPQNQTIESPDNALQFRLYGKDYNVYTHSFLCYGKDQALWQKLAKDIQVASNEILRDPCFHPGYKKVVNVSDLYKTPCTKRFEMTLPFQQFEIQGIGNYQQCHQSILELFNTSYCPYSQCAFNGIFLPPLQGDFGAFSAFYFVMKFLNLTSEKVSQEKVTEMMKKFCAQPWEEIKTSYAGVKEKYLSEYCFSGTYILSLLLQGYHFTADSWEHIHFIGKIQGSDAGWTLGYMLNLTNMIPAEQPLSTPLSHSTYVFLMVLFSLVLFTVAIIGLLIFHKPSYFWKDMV

human NTPDase2 = target: T4, human NTPDase2 (Homo sapiens, UniProt Q9Y5L3); experiment: Hydrolysis by NTPDase2; type: biochemical; conditions: 100 μM substrate; relative to ATP hydrolysis (100%)
T4 sequence (Q9Y5L3 1-495): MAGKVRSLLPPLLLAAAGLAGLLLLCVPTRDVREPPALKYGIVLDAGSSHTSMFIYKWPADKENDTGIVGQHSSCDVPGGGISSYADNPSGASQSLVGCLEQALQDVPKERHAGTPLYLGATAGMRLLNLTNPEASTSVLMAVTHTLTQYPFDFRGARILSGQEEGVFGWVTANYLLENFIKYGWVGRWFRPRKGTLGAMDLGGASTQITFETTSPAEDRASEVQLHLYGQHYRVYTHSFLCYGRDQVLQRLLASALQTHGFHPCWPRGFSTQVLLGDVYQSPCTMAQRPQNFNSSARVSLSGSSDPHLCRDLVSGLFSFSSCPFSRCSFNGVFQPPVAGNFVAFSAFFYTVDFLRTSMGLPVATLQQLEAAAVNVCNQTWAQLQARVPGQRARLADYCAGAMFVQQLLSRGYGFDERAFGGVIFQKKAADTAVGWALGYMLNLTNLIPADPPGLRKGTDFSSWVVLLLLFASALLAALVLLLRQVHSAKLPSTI

rat P2Y6 receptor = rat P2Y6 receptor (Rattus norvegicus, UniProt Q63371); experiment: Increase in [Ca2+]i in 1321N1 astrocytoma cells expressing P2Y6 receptor; type: cell-based; conditions: read-out: EC50 of analogue-induced increase in [Ca2+]i, P2Y6; 1321N1 cell transfectants
Sequence of rat P2Y6 receptor (Q63371 whole entry): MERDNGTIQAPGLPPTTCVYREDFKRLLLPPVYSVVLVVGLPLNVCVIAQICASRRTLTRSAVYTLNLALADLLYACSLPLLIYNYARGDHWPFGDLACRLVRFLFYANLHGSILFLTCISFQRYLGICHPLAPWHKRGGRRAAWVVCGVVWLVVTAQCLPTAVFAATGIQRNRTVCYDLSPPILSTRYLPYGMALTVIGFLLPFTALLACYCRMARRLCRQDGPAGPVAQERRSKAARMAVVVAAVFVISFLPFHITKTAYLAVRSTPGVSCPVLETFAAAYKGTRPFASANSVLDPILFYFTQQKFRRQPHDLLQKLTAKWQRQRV

human P2Y4 receptor = human P2Y4 receptor (Homo sapiens, UniProt P51582); experiment: Increase in [Ca2+]i in 1321N1 astrocytoma cells expressing P2Y4 receptor; type: cell-based; conditions: read-out: EC50 of analogue-induced increase in [Ca2+]i, P2Y4; 1321N1 cell transfectants
Sequence of human P2Y4 receptor (P51582 whole entry): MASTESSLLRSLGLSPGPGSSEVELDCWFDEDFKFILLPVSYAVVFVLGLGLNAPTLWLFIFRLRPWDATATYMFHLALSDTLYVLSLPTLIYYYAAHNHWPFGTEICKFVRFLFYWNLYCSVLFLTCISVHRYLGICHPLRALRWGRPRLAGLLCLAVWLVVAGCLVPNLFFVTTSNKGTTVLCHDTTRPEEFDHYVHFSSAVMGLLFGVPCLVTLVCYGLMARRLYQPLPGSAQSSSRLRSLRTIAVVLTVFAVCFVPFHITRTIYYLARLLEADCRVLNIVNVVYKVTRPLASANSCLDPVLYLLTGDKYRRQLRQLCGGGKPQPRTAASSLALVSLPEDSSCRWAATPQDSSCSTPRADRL

turkey P2Y1 receptor = turkey P2Y1 receptor (Meleagris gallopavo, UniProt P49652); type: cell-based; conditions: 1321N1 cell transfectants
Sequence of turkey P2Y1 receptor (P49652 whole entry): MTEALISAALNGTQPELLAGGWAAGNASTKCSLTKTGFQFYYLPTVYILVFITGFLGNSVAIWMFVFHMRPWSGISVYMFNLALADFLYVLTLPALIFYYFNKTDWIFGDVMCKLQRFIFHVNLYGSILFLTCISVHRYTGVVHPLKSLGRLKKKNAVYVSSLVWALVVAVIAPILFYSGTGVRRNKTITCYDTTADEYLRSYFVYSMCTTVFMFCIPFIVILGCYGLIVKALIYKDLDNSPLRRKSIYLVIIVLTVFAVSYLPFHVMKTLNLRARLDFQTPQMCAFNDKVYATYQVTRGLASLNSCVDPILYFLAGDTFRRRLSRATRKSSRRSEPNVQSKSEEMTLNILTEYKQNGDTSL

human P2Y2 receptor = human P2Y2 receptor (Homo sapiens, UniProt P41231); experiment: Increase in [Ca2+]i in 1321N1 astrocytoma cells expressing P2Y2 receptor; type: cell-based; conditions: read-out: EC50 of analogue-induced increase in [Ca2+]i, P2Y2; 1321N1 cell transfectants
Sequence of human P2Y2 receptor (P41231 whole entry): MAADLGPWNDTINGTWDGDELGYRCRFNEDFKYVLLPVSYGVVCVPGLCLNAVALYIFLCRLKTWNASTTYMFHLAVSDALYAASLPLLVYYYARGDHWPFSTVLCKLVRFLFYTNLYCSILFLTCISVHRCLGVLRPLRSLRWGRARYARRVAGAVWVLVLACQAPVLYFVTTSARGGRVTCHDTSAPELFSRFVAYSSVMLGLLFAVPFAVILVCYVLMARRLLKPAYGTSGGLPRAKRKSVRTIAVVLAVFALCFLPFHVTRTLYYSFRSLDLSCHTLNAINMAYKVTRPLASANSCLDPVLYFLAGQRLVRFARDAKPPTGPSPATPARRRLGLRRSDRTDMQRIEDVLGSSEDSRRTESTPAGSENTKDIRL

[1] = Stability in human blood serum, Method B
[2] = Chemical hydrolysis under gastric juice-like conditions; type: physicochemical
[3] = pKa and degree of ionization of phosphate/phosphonate; type: physicochemical; conditions: physiological conditions, pH 7.4
P2Y1R = conditions: cited from earlier work
human NPP3 = target: T5, human NPP3 (Homo sapiens, UniProt O14638); experiment: Hydrolysis by NPP3; type: biochemical
T5 sequence (O14638 1-875): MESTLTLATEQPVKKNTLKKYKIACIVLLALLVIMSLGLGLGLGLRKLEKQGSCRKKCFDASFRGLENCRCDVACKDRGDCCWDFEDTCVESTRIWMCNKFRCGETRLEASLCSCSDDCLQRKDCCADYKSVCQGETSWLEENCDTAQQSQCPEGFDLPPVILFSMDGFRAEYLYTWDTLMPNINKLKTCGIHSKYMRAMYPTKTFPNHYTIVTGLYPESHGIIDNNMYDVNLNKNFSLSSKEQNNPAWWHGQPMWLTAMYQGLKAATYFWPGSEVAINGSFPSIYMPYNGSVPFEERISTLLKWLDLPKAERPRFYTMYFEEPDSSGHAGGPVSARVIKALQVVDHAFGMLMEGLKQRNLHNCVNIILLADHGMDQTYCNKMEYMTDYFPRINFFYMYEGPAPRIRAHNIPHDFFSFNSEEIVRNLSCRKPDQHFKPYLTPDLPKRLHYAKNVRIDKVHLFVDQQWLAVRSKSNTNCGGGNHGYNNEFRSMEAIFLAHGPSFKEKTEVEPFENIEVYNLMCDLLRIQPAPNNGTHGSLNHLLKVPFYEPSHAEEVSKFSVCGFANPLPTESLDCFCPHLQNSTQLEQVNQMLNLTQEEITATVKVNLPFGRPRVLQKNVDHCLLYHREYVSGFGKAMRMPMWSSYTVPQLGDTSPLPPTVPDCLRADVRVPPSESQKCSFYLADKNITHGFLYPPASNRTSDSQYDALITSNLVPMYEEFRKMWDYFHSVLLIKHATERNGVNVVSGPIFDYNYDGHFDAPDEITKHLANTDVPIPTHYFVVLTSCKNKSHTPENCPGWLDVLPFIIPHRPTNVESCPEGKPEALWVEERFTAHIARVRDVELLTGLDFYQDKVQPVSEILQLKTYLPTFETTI

human NPP1 = target: T6, human NPP1 (Homo sapiens, UniProt P22413); experiment: Hydrolysis by NPP1; type: biochemical
T6 sequence (P22413 1-925): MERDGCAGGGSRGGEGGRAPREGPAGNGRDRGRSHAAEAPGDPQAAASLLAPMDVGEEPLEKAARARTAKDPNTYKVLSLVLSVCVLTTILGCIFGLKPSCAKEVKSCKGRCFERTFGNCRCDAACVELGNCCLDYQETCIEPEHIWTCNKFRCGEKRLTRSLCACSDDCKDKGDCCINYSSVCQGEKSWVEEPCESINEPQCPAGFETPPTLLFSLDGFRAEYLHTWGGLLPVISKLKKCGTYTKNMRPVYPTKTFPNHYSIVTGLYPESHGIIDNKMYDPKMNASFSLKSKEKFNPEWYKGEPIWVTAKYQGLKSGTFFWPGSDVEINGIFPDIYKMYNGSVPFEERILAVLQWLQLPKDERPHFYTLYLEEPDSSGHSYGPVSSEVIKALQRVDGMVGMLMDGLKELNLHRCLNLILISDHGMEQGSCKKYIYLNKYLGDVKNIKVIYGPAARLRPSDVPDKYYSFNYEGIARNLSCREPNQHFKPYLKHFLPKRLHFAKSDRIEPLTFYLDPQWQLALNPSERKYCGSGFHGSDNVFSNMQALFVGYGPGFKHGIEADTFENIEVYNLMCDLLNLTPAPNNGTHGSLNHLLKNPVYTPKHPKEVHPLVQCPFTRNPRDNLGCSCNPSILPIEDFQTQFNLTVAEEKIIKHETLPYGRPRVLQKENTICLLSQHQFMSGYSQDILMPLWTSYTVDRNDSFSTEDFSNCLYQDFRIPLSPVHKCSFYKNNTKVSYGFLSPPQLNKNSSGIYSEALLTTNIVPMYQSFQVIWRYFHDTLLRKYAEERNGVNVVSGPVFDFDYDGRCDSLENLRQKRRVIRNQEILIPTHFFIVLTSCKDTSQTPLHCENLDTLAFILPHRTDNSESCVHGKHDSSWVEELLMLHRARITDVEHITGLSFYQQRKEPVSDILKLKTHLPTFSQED

P2Y2R = conditions: cited from earlier work
[4] = 100 μM substrate, relative to ATP hydrolysis (100%)
[5] = 100 μM substrate, relative to pnp-TMP hydrolysis (100%)

Nc1ncnc2c1ncn2[C@@H]1O[C@H](COP(=O)(O)OP(=O)(O)OP(=O)(O)O)[C@@H](O)[C@H]1O [ATP, reference compound]
ATPase activity (100%) of NTPDase8 (human NTPDase8; 100 μM ATP): 173 ± 18 nmol Pi/min·mg protein
ATPase activity (100%) of NTPDase3 (human NTPDase3; 100 μM ATP): 493 ± 21 nmol Pi/min·mg protein
ATPase activity (100%) of NTPDase1 (human NTPDase1; 100 μM ATP): 497 ± 38 nmol Pi/min·mg protein

[BH3-][P+](O)(OC[C@H]1O[C@@H](n2cnc3c(N)nc(SC)nc32)[C@H](O)[C@@H]1O)OP(=O)(O)CP(=O)(O)O (single isomer, unassigned) [4B, 2-MeS–adenosine-5′-O-(α-boranotriphosphate)-β,γ-CH2]
Relative activity of NTPDase2 (human NTPDase2): 1.0 ± 0.3%
EC50 (rat P2Y6 receptor): > 100 µM
Relative activity of NTPDase8 (human NTPDase8; [4]): 3.0 ± 07%
EC50 (human P2Y4 receptor): > 100 µM
agonist activity at P2Y1R (turkey P2Y1 receptor): potent P2Y1R agonists; also recorded: active isomer
EC50 (turkey P2Y1 receptor; read-out: EC50 of analogue-induced increase in [Ca2+]i, P2Y1): 17.2 ± 5.3 µM
EC50 (human P2Y2 receptor): > 100 µM
t1/2 in human blood serum ([1]; Method B, human blood serum and RPMI-1640, 37 °C): 71.9 h
Relative activity of NTPDase3 (human NTPDase3; [4]): 2.0 ± 1.0%
Relative activity of NTPDase1 (human NTPDase1; [4]): <1%
t1/2 of acidic hydrolysis ([2]; KCl/HCl buffer pH 1.4, 37 °C, 31P NMR (2) or HPLC-MS (3B, 4B)): 14.5 h

BP(=O)(OC[C@H]1O[C@@H](n2cnc3c(N)ncnc32)[C@H](O)[C@@H]1O)OP(=O)(O)CP(=O)(O)O (stereo partly drawn) [compound 3, Adenosine-5′-O-(α-boranotriphosphate)-β,γ-CH2]
improvement of chemical stability as compared to 1 ([2]; pH 1.4, 37 °C): ca. 3 fold

CSc1nc(N)c2ncn([C@@H]3O[C@H](COP(=O)(O)OP(=O)(O)OP(=O)(O)O)[C@@H](O)[C@H]3O)c2n1 [2-MeS–ATP]
fraction ionized [3]: 91%

BP(=O)(OC[C@H]1O[C@@H](n2cnc3c(N)nc(SC)nc32)[C@H](O)[C@@H]1O)OP(=O)(O)CP(=O)(O)O (stereo partly drawn) [compound 4, 2-MeS–adenosine-5′-O-(α-boranotriphosphate)-β,γ-CH2]
enhancement of the metabolic stability of ATP ([1]; human blood serum, half-life vs ATP): ≥ 20 fold

2-MeS–ATP-α-B [1A]
potency of 1A isomer relative to 1B isomer at P2Y1R (P2Y1R): 20 fold

Cc1cn([C@H]2C[C@H](O)[C@@H](COP(=O)(O)Oc3ccc([N+](=O)[O-])cc3)O2)c(=O)[nH]c1=O [pnp-TMP, p-nitrophenylthymidine-5′-monophosphate, reference compound]
100% activity of NPP3 with pnp-TMP as substrate (human NPP3; 100 μM pnp-TMP): 53 ± 4 nmol p-nitrophenol/min·mg protein
Relative activity of NPP3 (human NPP3; [5]): 100%
100% activity of NPP1 with pnp-TMP as substrate (human NPP1; 100 μM pnp-TMP): 24 ± 2 nmol p-nitrophenol/min·mg protein
Relative activity of NPP1 (human NPP1; [5]): 100%

BP(=O)(OC[C@H]1O[C@@H](n2cnc3c(N)nc(Cl)nc32)[C@H](O)[C@@H]1O)OP(=O)(O)OP(=O)(O)O (stereo partly drawn) [2-Cl–ATP-α-B, reference compound]
activity at P2Y2R (P2Y2R): very weak agonists

CSc1nc(N)c2ncn([C@@H]3O[C@H](COP(=O)(O)OP(=O)(O)O)[C@@H](O)[C@H]3O)c2n1 [2-MeS-ADP]
fraction ionized [3]: 91%

Nc1ncnc2c1ncn2[C@@H]1O[C@H](COP(=O)(O)OP(=O)(O)O)[C@@H](O)[C@H]1O [ADP]
EC50 (P2Y1R; read-out: EC50 at P2Y1R, endogenous agonist ref 1): ~100 nM
